Reference: EP1004306A2, “Estrogen agonists/antagonists” (Pfizer Products Inc., priority 1998, dated 2000)

Key:
[1] = tested on: OVX rats; assay: Prevention of bone loss in OVX rats (female bone mineral density, DEXA); assay type: in vivo; settings: Rattus norvegicus, 672 h, oral, read-out: oral ED50, prevents bone loss in OVX rats
Text: Bone mineral density, a measure of bone mineral content, accounts for greater than 80% of a bone's strength. Loss of bone mineral density with age and/or disease reduces a bone's strength and renders it more prone to fracture. Bone mineral content is accurately measured in people and animals by dual x-ray absorptiometry (DEXA) such that changes as little as 1% can be quantified. We have utilized DEXA to evaluate changes in bone mineral density due to estrogen deficiency following ovariectomy (surgical removal of ovaries) and treatment with vehicle, estradiol (E2), keoxifen (raloxifen), or other estrogen agonists. The purpose of these studies is to evaluate the ability of the compounds of this invention to prevent estrogen deficiency bone loss as measured by DEXA. Female (S-D) rats 4-6 months of age undergo bilateral ovariectomy or sham surgery and allowed to recover from anesthesia. […] (Hologic, Inc. Waltham, MA) and bone mineral density is determined in the distal portion of the femur at a site from 1cm to 2cm from the distal end of the femur using the high resolution software supplied by Hologic. Bone mineral density is determined by dividing the bone mineral content by the bone area of the distal femur. […] Mean bone mineral density is obtained for each animal and statistical differences (p<0.05) from the vehicle-treated ovariectomy and sham-operated group were determined by t test.

[2] = tested on: adult ORX rats; assay: Male osteoporosis model: total serum cholesterol; assay type: in vivo, Sprague-Dawley male rats; settings: for decrease of total serum cholesterol: ORX rats
Method: Fifty Sprague-Dawley male rats were sham-operated (n=10) or ORX (n=40) at 10 months of age. Ten rats were autopsied on day 0 as basal controls. ORX rats were treated (daily p.o.) with either vehicle (10% ethanol in water) or (-)Cis-6-phenyl-5-[4-(2-pyrrolidin-1-yl-ethoxy)phenyl]-5,6,7,8-tetrahydronaphthalen-2-ol at 1, 10, or 100 µg/kg/day for 60 days. There were 10 rats per each subgroup. all rats were given subcutaneous injections with 10 mg/kg of calcein (Sigma Chemical Co., St. Louis, MO) on 13 and 3 days before autopsy. • 1) Total serum cholesterol: Total serum cholesterol was determined using a high performance cholesterol colormetic assay (Boehringer Mannheim Biochemicals, Indianapolis, IN). • 2) Prostate weight: The prostate weight was determined immediately at autopsy. • 3) Femoral Bone Mineral Measurements: The right femur from each rat was removed at autopsy and scanned using dual energy x-ray absorptiometry (DEXA, QDR 1000/W, Hologic Inc., Waltham, MA) equipped with "Regional High Resolution Scan" software (Hologic Inc., Waltham, MA). The scan field size is 5.08 x 1.902 cm, resolution was 0.0254 x 0.0127 cm and scan speed is 7.25 mim/second. The femoral scan images were analyzed and bone area, bone mineral content (BMC), and bone mineral density (BMD) of whole femora (WF), distal femoral metaphyses (DFM), femoral shaft (FS) were determined according to the method described in H. Z. Ke et al., Droloxifene, a New Estrogen Antagonist/Agonist, Prevents Bone Loss in Ovariectomized Rats. ENDOCRINOLOGY 136;2435-2441, 1995. • 4) Third Lumbar Vertebral Body (LV3) Histomorphometry: The LV3 was removed at autopsy, dissected free of muscle, fixed in 70% ethanol, dehydrated in graded concentrations of ethanol, defatted in acetone, then embedded in methyl methacrylate (Eastman Organic Chemicals, Rochester, NY). Longitudinal sections of LV3 at 4 and 10 µm thickness were cut using Reichert-Jung Polycut S microtome. One 4 µm and one 10 µm sections from each rat will be used for cancellous bone histomorphometry. […]

[3] = tested on: adult ORX rats; assay: Male osteoporosis model: prostate weight and histology; assay type: in vivo, Sprague-Dawley male rats; settings: 10 and 100 µg/kg/d p.o. for 60 days; compared to ORX controls
Method: (§1) Fifty Sprague-Dawley male rats were sham-operated (n=10) or ORX (n=40) at 10 months of age. Ten rats were autopsied on day 0 as basal controls. ORX rats were treated (daily p.o.) with either vehicle (10% ethanol in water) or (-)Cis-6-phenyl-5-[4-(2-pyrrolidin-1-yl-ethoxy)phenyl]-5,6,7,8-tetrahydronaphthalen-2-ol at 1, 10, or 100 µg/kg/day for 60 days. There were 10 rats per each subgroup. all rats were given subcutaneous injections with 10 mg/kg of calcein (Sigma Chemical Co., St. Louis, MO) on 13 and 3 days before autopsy. • 1) Total serum cholesterol: Total serum cholesterol was determined using a high performance cholesterol colormetic assay (Boehringer Mannheim Biochemicals, Indianapolis, IN). • 2) Prostate weight: The prostate weight was determined immediately at autopsy. • 3) Femoral Bone Mineral Measurements: The right femur from each rat was removed at autopsy and scanned using dual energy x-ray absorptiometry (DEXA, QDR 1000/W, Hologic Inc., Waltham, MA) equipped with "Regional High Resolution Scan" software (Hologic Inc., Waltham, MA). The scan field size is 5.08 x 1.902 cm, resolution was 0.0254 x 0.0127 cm and scan speed is 7.25 mim/second. […]

[4] = tested on: adult ORX rats; assay: Male osteoporosis model: femoral bone mineral measurements (DEXA); assay type: in vivo, Sprague-Dawley male rats; settings: 10 or 100 µg/kg/day p.o. for 60 days; compared to ORX controls
Method: as §1

[5] = tested on: adult ORX rats; assay: Male osteoporosis model: third lumbar vertebral body (LV3) histomorphometry; assay type: in vivo, Sprague-Dawley male rats; settings: for Activation Frequency: ORX rats, daily p.o. 60 days
Method: (§2) Fifty Sprague-Dawley male rats were sham-operated (n=10) or ORX (n=40) at 10 months of age. Ten rats were autopsied on day 0 as basal controls. […] There were 10 rats per each subgroup. all rats were given subcutaneous injections with 10 mg/kg of calcein (Sigma Chemical Co., St. Louis, MO) on 13 and 3 days before autopsy. • 1) Total serum cholesterol: Total serum cholesterol was determined using a high performance cholesterol colormetic assay (Boehringer Mannheim Biochemicals, Indianapolis, IN). • 2) Prostate weight: The prostate weight was determined immediately at autopsy. • 3) Femoral Bone Mineral Measurements: The right femur from each rat was removed at autopsy and scanned using dual energy x-ray absorptiometry (DEXA, QDR 1000/W, Hologic Inc., Waltham, MA) equipped with "Regional High Resolution Scan" software (Hologic Inc., Waltham, MA). The scan field size is 5.08 x 1.902 cm, resolution was 0.0254 x 0.0127 cm and scan speed is 7.25 mim/second. The femoral scan images were analyzed and bone area, bone mineral content (BMC), and bone mineral density (BMD) of whole femora (WF), distal femoral metaphyses (DFM), femoral shaft (FS) were determined according to the method described in H. Z. Ke et al., Droloxifene, a New Estrogen Antagonist/Agonist, Prevents Bone Loss in Ovariectomized Rats. ENDOCRINOLOGY 136;2435-2441, 1995. • 4) Third Lumbar Vertebral Body (LV3) Histomorphometry: The LV3 was removed at autopsy, dissected free of muscle, fixed in 70% ethanol, dehydrated in graded concentrations of ethanol, defatted in acetone, then embedded in methyl methacrylate (Eastman Organic Chemicals, Rochester, NY). Longitudinal sections of LV3 at 4 and 10 µm thickness were cut using Reichert-Jung Polycut S microtome. One 4 µm and one 10 µm sections from each rat will be used for cancellous bone histomorphometry. The 4 µm sections were stained with modified Masson's Trichrome stain while the 10 µm sections remained unstained.
A Bioquant OS/2 histomorphometry system (R&M Biometrics, Inc., Nashville, TN) was used for the static and dynamic histomorphometric measurements of the secondary spongiosa of the proximal tibial metaphyses between 1.2 and 3.6 mm distal to the growth plate-epiphyseal junction. The first 1.2 mm of the tibial metaphyseal region need to be omitted in order to restrict measurements to the secondary spongiosa. The 4 µm sections will be used to determine indices related to bone volume, bone structure, and bone resorption, while the 10 µm sections will be used to determine indices related to bone formation and bone turnover.
• 1. Total metaphyseal area (TV, mm^2): metaphyseal area between 1.2 and 3.6 mm distal to the growth plate-epiphyseal junction. • 2. Trabecular bone area (BV, mm^2): total area of trabeculae within TV. • 3. Trabecular bone perimeter (BS, mm): the length of total perimeter of trabeculae. • 4. Trabecular bone volume (BV/TV,%): BV / TV x 100. • 5. Trabecular bone number (TBN,#/mm): 1.199 / 2 x BS / TV. • 6. Trabecular bone thickness (TBT, µm): (2000 / 1.199) x (BV / BS). • 7. Trabecular bone separation (TBS, µm): (2000 x 1.199) x (TV - BV).
• 1. Osteoclast number (OCN, #): total number of osteoclast within total metaphyseal area. • 2. […] (OCP, mm): length of trabecular perimeter covered by osteoclast. • 3. Osteoclast number/mm (OCN/mm, #/mm): OCN / BS. • 4. Percent osteoclast perimeter (%OCP,%): OCP / BS x 100.
• 1. Single-calcein labeled perimeter (SLS, mm): total length of trabecular perimeter labeled with one calcein label. • 2. Double-calcein labeled perimeter (DLS, mm): total length of trabecular perimeter labeled with two calcein labels. • 3. Inter-labeled width (ILW, µm): average distance between two calcein labels. • 4. Percent mineralizing perimeter (PMS,%):(SLS/2 + DLS) / BS x 100. • 5. Mineral apposition rate (MAR, µm/day): ILW / label interval. • 6. Bone formation rate/surface ref. (BFR/BS, µm^2/d/µm): (SLS/2 + DLS) x MAR / BS. • 7. […]

[6] = tested on: adult ORX rats; assay: Male osteoporosis model: compression test of fifth lumbar vertebral body (LV5); assay type: in vivo, Sprague-Dawley male rats; settings: for Maximal Load of LV5: ORX rats, daily p.o. 60 days, p < 0.05 vs. ORX
Method: as §2, with “Longitudinal sections of LV3 at 4 and 10 µm thickness were cut using Reichert-Jung Polycut S microtome. One 4 µm and one 10 µm sections from each rat will be used for cancellous bone histomorphometry. The 4 µm sections were stained with modified Masson's Trichrome stain while the 10 µm sections remained unstained.” left out
• 1. […] A compression test was used to determine the mechanical properties of LV5, as described by Mosekilde et al. (Mosekilde, L., Danielsen, C. C., Gasser, J. The effect on vertebral bone mass and strength of long term treatment with antiresorptive agents, human PTH (1-38), and combination therapy, assessed in aged ovariectomized rats. Endocrinol 1994; 134:2126-2134). […] The maximal load and stiffness were calculated from the load-displacement curve.

[7] = Male osteoporosis model: body weight; assay type: in vivo, Sprague-Dawley male rats; settings: 1, 10, 100 µg/kg/day p.o. for 60 days; compared to both sham and ORX controls
Method: as §1

[8] = tested on: Male Sprague-Dawley rats; assay: Effect on prostate weight; assay type: in vivo
Method: Male Sprague-Dawley rats, three months of age are administered by subcutaneous injection either vehicle (10% ethanol in water), estradiol (30 µg/kg), testosterone (1 mg/kg) or a compound of formula I daily for 14 days (n=6/group). After 14 days the animals are sacrificed, the prostate is removed, and the wet prostate weight is determined. Mean weight is determined and statistical significance (p<0.05) is determined compared to the vehicle-treated group using Student's t-test.

[9] = tested on: male rats; settings: treatment of male rats; cited from earlier work
[10] = tested on: male rats; settings: 200 and 400 mg/kg/day; cited from earlier work
[11] = 10 or 100 µg/kg/day p.o. for 60 days, compared to ORX controls

Oc1ccc2c(c1)CC[C@H](c1ccccc1)[C@@H]2c1ccc(OCCN2CCCC2)cc1 [(-)Cis-6-phenyl-5-[4-(2-pyrrolidin-1-yl-ethoxy)phenyl]-5,6,7,8-tetrahydronaphthalen-2-ol]
ED50 [1]: ~1 µg/kg
decrease of total serum cholesterol ([2]; 10 µg/kg/d p.o. for 60 days): 46%
decrease of total serum cholesterol ([2]; 100 µg/kg/d p.o. for 60 days): 68%
total serum cholesterol ([2]; 1, 10, 100 µg/kg/day p.o. for 60 days, compared to both sham and ORX controls): dose-dependently decreased
prostate histology parameters [3]: no effect
prostate weight [3]: no effect
age-related and ORX-induced decreases in DFBMD [4]: completely prevented
age-related and ORX-induced decreases in TBV [5, 11]: completely prevented
bone resorption [5, 11]: significantly decreased
bone turnover [5, 11]: significantly decreased
Activation Frequency ([5]; 10 µg dose group): 2.06 ± 0.28 #/year
Activation Frequency ([5]; 100 µg dose group, p < 0.05 vs. ORX): 0.93 ± 0.08 # #/year
Activation Frequency ([5]; dose group printed as 1 mg, p < 0.05 vs. Sham): 2.67 ±0.34 #/year
age-related and ORX-induced decreases in maximal load [6, 11]: completely prevented
Maximal Load of LV5 ([6]; 10 µg dose group): 393 ± 27 N
Maximal Load of LV5 ([6]; 100 µg dose group): 393 ± 25 N
body weight [7]: dose-dependently decreased

C[C@]12CC[C@@H]3c4ccc(O)cc4CC[C@H]3[C@@H]1CC[C@@H]2O [estrogen, estradiol]
prostate weight compared to vehicle ([8]; 30 µg/kg s.c. daily for 14 days): significantly reduces prostate weight

C[C@]12CC[C@H]3[C@@H](CCC4=CC(=O)CC[C@@]43C)[C@@H]1CC[C@@H]2O [Testosterone, testosterone]
prostate weight compared to vehicle ([8]; testosterone 1 mg/kg s.c. daily for 14 days): no effect

O=C(c1ccc(OCCN2CCCCC2)cc1)c1c(-c2ccc(O)cc2)sc2cc(O)ccc12 [raloxifene, 6-hydroxy-2-(4-hydroxyphenyl)-3-[4-(2-piperidinoethoxy)benzoyl] benzo[b] thiophene]
ventral prostate [9]: regression of the ventral prostate

CC/C(=C(\c1ccccc1)c1ccc(OCCN(C)C)cc1)c1ccccc1 [tamoxifen, 1-(4-β-dimethylaminoethoxyphenyl)-1,2-diphenyl-but-1-ene]
weights of the testes and secondary sex organs [10]: reduces the weights of the testes and secondary sex organs
